Source: patent US7161032B2, “Sulfonamide derivatives, insecticides for agricultural and horticultural use, and usage thereof” (Nihon Nohyaku Co., Ltd., priority 2002, dated 2007)

Columns and labels:
Assay type in all cases: in vivo
[1] = test system: Diamond Back Moth (Plutella xylostella); assay: Insecticidal effect on diamond back moth (Test Example 1): egg-bearing Chinese cabbage seedling immersed in 50 ppm liquid chemical
Description: Adult diamond back moths were released and allowed to oviposit on a Chinese cabbage seedling. Two days after the release, the seedling having the eggs deposited thereon was immersed for about 30 seconds in a liquid chemical prepared by diluting a preparation containing each compound listed in Table 1 or 2 as an active ingredient to adjust the concentration to 50 ppm. After air-dryness, it was allowed to stand in a room thermostated at 25° C. Six days after the immersion, the hatched insects were counted. The mortality was calculated according to the following equation and the insecticidal effect was judged according to the criterion shown below. The test was carried out with triplicate groups of 10 insects. [formula]

[2] = test system: Common Cutworm (Spodoptera litura); assay: Insecticidal effect on common cutworm (Test Example 2): cabbage leaf piece immersed in 50 ppm liquid chemical; conditions: common cutworm (Spodoptera litura) second-instar larvae, 8 days after inoculation, 25° C.
Description: A piece of cabbage leaf (cultivar: Shikidori) was immersed for about 30 seconds in a liquid chemical prepared by diluting a preparation containing each compound listed in Table 1 or 2 as an active ingredient to adjust the concentration to 50 ppm. After air-dryness, it was placed in a plastic Petri dish with a diameter of 9 cm and inoculated with second-instar larvae of common cutworm, after which the dish was closed and then allowed to stand in a room thermostated at 25° C. Eight days after the inoculation, the dead and alive were counted. The mortality was calculated according to the following equation and the insecticidal effect was judged according to the criterion shown in Test Example 1. The test was carried out with triplicate groups of 10 insects. [formula]

[3] = test system: Smaller Tea Tortrix (Adoxophyes sp.); assay: Insecticidal effect on smaller tea tortrix (Test Example 3): tea leaves immersed in 50 ppm liquid chemical; conditions: smaller tea tortrix (Adoxophyes sp.) larvae, 8 days after inoculation, 25° C., humidity 70%
Description: Tea leaves were immersed for about 30 seconds in a liquid chemical prepared by diluting a preparation containing each compound listed in Table 1 or 2 as an active ingredient to adjust the concentration to 50 ppm. After air-dryness, the tea leaves were placed in a plastic Petri dish with a diameter of 9 cm and inoculated with larvae of smaller tea tortrix, after which the dish was allowed to stand in a room thermostated at 25° C. and having a humidity of 70%. Eight days after the inoculation, the dead and alive were counted and the insecticidal effect was judged according to the criterion shown in Test Example 1. The test was carried out with triplicate groups of 10 insects.

Row | SMILES | Insecticidal effect (mortality grade), Test Example 1 [1] | Insecticidal effect (mortality grade), Test Example 2 [2] | Insecticidal effect (mortality grade), Test Example 3 [3]
1 | Cc1cc(C(F)(C(F)(F)F)C(F)(F)F)ccc1NC(=O)c1cccc(I)c1C(=O)NC(C)(C)CS(=O)(=O)N1CC[S+]([O-])CC1 [1-59] | A (Mortality 100%) | A (Mortality 100%) | E (Mortality less than 50%)
2 | Cc1cc(C(F)(F)C(F)(F)F)ccc1NC(=O)c1cccc(I)c1C(=O)NC(C)(C)CS(=O)(=O)NCC[S+](C)[O-] (stereo not drawn) [1-305] | A (Mortality 100%) | A (Mortality 100%) | A (Mortality 100%)
3 | Cc1cc(C(F)(C(F)(F)F)C(F)(F)F)ccc1NC(=O)c1cccc(I)c1C(=O)NC(C)CS(=O)(=O)NCc1ccccc1Cl (stereo not drawn) [1-24] | A (Mortality 100%) | A (Mortality 100%) | A (Mortality 100%)
4 | Cc1cc(C(F)(C(F)(F)F)C(F)(F)F)ccc1NC(=O)c1cccc(I)c1C(=O)NC(C)CS(=O)(=O)N(C)C (stereo not drawn) [1-3] | A (Mortality 100%) | A (Mortality 100%) | A (Mortality 100%)
5 | CCNC(=O)C(C)NS(=O)(=O)CC(C)NC(=O)c1c(I)cccc1C(=O)Nc1ccc(C(F)(C(F)(F)F)C(F)(F)F)cc1C (stereo not drawn) [1-104] | A (Mortality 100%) | A (Mortality 100%) | A (Mortality 100%)
6 | CCN(CC)S(=O)(=O)CC(C)NC(=O)c1c(Br)cccc1C(=O)Nc1ccc(C(F)(C(F)(F)F)C(F)(F)F)cc1C (stereo not drawn) [1-214] | A (Mortality 100%) | A (Mortality 100%) | A (Mortality 100%)
7 | CCNS(=O)(=O)CC(C)NC(=O)c1c(I)cccc1C(=O)Nc1ccc(OC(F)(F)F)cc1C (stereo not drawn) [1-275] | A (Mortality 100%) | E (Mortality less than 50%) | E (Mortality less than 50%)
8 | Cc1cc(C(F)(C(F)(F)F)C(F)(F)F)ccc1NC(=O)c1cccc(I)c1C(=O)NC(C)CS(=O)(=O)NCc1ccccc1Br (stereo not drawn) [1-25] | A (Mortality 100%) | A (Mortality 100%) | A (Mortality 100%)
9 | CCCNS(=O)(=O)CC(C)NC(=O)c1c(I)cccc1C(=O)Nc1ccc(C(F)(C(F)(F)F)C(F)(F)F)cc1C (stereo not drawn) [1-7] | A (Mortality 100%) | A (Mortality 100%) | A (Mortality 100%)
10 | CC[S+]([O-])CCNS(=O)(=O)CC(C)(C)NC(=O)c1c(I)cccc1C(=O)Nc1ccc(C(F)(F)C(F)(F)F)cc1C (stereo not drawn) [1-308] | A (Mortality 100%) | A (Mortality 100%) | A (Mortality 100%)
11 | C#CCNS(=O)(=O)CC(C)NC(=O)c1c(I)cccc1C(=O)Nc1ccc(C(F)(C(F)(F)F)C(F)(F)F)cc1C (stereo not drawn) [1-21] | A (Mortality 100%) | A (Mortality 100%) | A (Mortality 100%)
12 | Cc1cc(C(F)(C(F)(F)F)C(F)(F)F)ccc1NC(=O)c1cccc(I)c1C(=O)NC(C)CS(=O)(=O)NC(C)CS(C)(=O)=O (stereo not drawn) [1-93] | A (Mortality 100%) | A (Mortality 100%) | A (Mortality 100%)
13 | Cc1cc(C(F)(F)C(F)(F)F)ccc1NC(=O)c1cccc(I)c1C(=O)NC(C)(C)CS(=O)(=O)NCc1ccccc1 [1-303] | A (Mortality 100%) | A (Mortality 100%) | A (Mortality 100%)
14 | CCN(CC)S(=O)(=O)CC(C)NC(=O)c1c(Cl)cccc1C(=O)Nc1ccc(C(F)(C(F)(F)F)C(F)(F)F)cc1C (stereo not drawn) [1-211] | A (Mortality 100%) | A (Mortality 100%) | A (Mortality 100%)
15 | Cc1cc(C(F)(C(F)(F)F)C(F)(F)F)ccc1NC(=O)c1cccc(I)c1C(=O)N[C@@H](C)CS(=O)(=O)N[C@@H](C)C[S+](C)[O-] (stereo partly drawn) [1-148] | A (Mortality 100%) | A (Mortality 100%) | A (Mortality 100%)
16 | COc1ccc(CNS(=O)(=O)CC(C)NC(=O)c2c(I)cccc2C(=O)Nc2ccc(C(F)(C(F)(F)F)C(F)(F)F)cc2C)cc1 (stereo not drawn) [1-35] | A (Mortality 100%) | A (Mortality 100%) | A (Mortality 100%)
17 | Cc1cc(C(F)(C(F)(F)F)C(F)(F)F)ccc1NC(=O)c1cccc(I)c1C(=O)NC(C)CS(=O)(=O)N1CC[S+]([O-])CC1 (stereo not drawn) [1-56] | A (Mortality 100%) | A (Mortality 100%) | A (Mortality 100%)
18 | CCN(CC)S(=O)(=O)CC(C)NC(=O)c1c(I)cccc1C(=O)Nc1ccc(C(F)(C(F)(F)F)C(F)(F)F)cc1C (stereo not drawn) [1-6] | A (Mortality 100%) | A (Mortality 100%) | A (Mortality 100%)
19 | Cc1cc(C(F)(C(F)(F)F)C(F)(F)F)ccc1NC(=O)c1cccc(I)c1C(=O)NC(C)(C)CS(N)(=O)=O [1-175, 3-iodo-N^1-{2-methyl-4-[1,2,2,2-tetrafluoro-1-(trifluoromethyl)ethyl]phenyl}-N^2-(2-sulfamoyl-1,1-dimethylethyl)phthalamide] | A (Mortality 100%) | A (Mortality 100%) | A (Mortality 100%)
20 | Cc1cc(C(F)(C(F)(F)F)C(F)(F)F)ccc1NC(=O)c1cccc(I)c1C(=O)NC(C)CS(=O)(=O)NC(C)(C)Cc1ccccc1 (stereo not drawn) [1-48] | A (Mortality 100%) | C (Mortality 89–80%) | A (Mortality 100%)
21 | Cc1cc(C(F)(C(F)(F)F)C(F)(F)F)ccc1NC(=O)c1cccc(I)c1C(=O)NC(C)(C)CS(=O)(=O)NCc1ccccc1 [1-184] | A (Mortality 100%) | A (Mortality 100%) | A (Mortality 100%)
22 | Cc1cc(C(F)(C(F)(F)F)C(F)(F)F)ccc1NC(=O)c1cccc(I)c1C(=O)NC(C)CS(=O)(=O)NC(C)C (stereo not drawn) [1-8] | A (Mortality 100%) | A (Mortality 100%) | A (Mortality 100%)
23 | Cc1cc(C(F)(C(F)(F)F)C(F)(F)F)ccc1NC(=O)c1cccc(I)c1C(=O)NC(C)CS(=O)(=O)NC(C)C(N)=O (stereo not drawn) [1-103] | A (Mortality 100%) | A (Mortality 100%) | A (Mortality 100%)
